From the NIST ThermoML archive (doi:10.1016/j.jct.2018.11.025) come the findings set out here.

The conditions of the data set: for Normal melting temperature: DTA.

± gives the expanded uncertainty stated by the source.

On to `c1ccc2c(c1)[nH]c1ccccc12` [9H-carbazole], for which the Normal melting temperature (Crystal) was found to be 243.89 ± 0.7 °C.
On to `c1ccc2c(c1)ccc1ccccc12` [phenanthrene], for which, for the setting “Crystal 1”, the Normal melting temperature was found to be 98.56 ± 0.7 °C. For the same compound, the Triple point temperature (Crystal 2, DSC) is recorded as 339.52 ± 0.93 K.
